Assay results: the NIST ThermoML archive (doi:10.1016/j.jct.2016.07.001)
± gives the expanded uncertainty stated by the source.

Key:
[1] = Molar enthalpy of transition or fusion; conditions: Crystal; DSC
[2] = Crystal; DTA

## O=S(=O)(c1ccc(O)cc1)c1ccccc1O [2,4'-dihydroxydiphenyl sulfone]
[1]
  Molar enthalpy of transition or fusion: 10.2 ± 0.263 kcal/mol
[2]
  Normal melting temperature: 182.20 ± 1.1 °C
